Values of other authors, collected in PMC6625762 (Bioorganic & medicinal chemistry letters, 2019).

Kd: 5 nM
Substance: NMeAla-Tle-(4S)-4-phenoxy-Pro-(R)-tetrahydronaphth-1-yl-amide
